# Laboratory results reported in patent publication EP2444396A1, “PHOTOPROTECTIVE COMPOSITION” (Apoteknos Para La Piel, S.L., priority 2009, dated 2010).
# Marks after values point to notes of the source that are not given here.
# What was measured:
# [1] = Solubility in organic solvents; type: physicochemical; conditions: methanol, organic solvent or mixture, thermodynamic from solid; MeOH
# [2] = UV spectrum: wavelengths of maximum absorption and absorbance (Cecil 2021 UV-Visible Spectrophotometer); type: physicochemical
# [3] = test system: MCF-7 breast cancer cell line; test: E-Screen cell proliferation test; type: cell-based, human; conditions: MCF-7 cells; for Proliferative effect (PE) Mean: 144 hours, negative control = 1
# From the text: The E-Screen proliferation test is based on the use of MCF-7 breast cancer cell line. The MCF-7 cells [which endogenously expressed the estrogen receptor alpha (ERα)], respond to the treatment with estradiol increasing its proliferative rate, synthesizing new proteins and transcribing certain specific genes. […] The test compares the number of cells or the cell proliferation obtained after 6 days of culture. The cells grow in culture medium supplemented with human serum lacking of estrogens, in the presence and/or absence of estradiol as well as of the chemical compounds suspected of having estrogenic activity. The E-Screen test was performed following the methodology previously described by Soto et al. ["An in culture bioassay to assess the estrogenicity of xenobiotics. […] Health Perspect. 103:844-850; 1995]. […] The assay was ended after 144 hours of subculture (exponential phase) after drawing out the medium and fixing the cells for the application of sulforhodamine-B technique. Finally, the cell growth for each experimental group is related to the growth obtained for the negative control (absence of hormone) and with respect to estradiol (positive control). Once the E-Screen test is performed, the maximum cell proliferation rate induced by the compound also known as proliferative effect (PE) was established by calculating the ratio existing between the maximum proliferation rate obtained for the compound and the proliferation rate of the negative control. The proliferation data corresponding with the successive dilutions of the compound were transformed after the application of the correction factor for the dilution of each experimental point, the arithmetic mean of the data obtained being calculated. Another parameter is the relative proliferative efficiency (RPE). […] In this assay, the estrogenicity E-Screen test commonly used to identify the hormonal activity of compounds interacting specifically with the estrogen receptor alpha (ERα), has been used. The assays were performed in triplicate for each concentration (range: 300-0.003 µg/ml) in at least three independent experiments.
# [4] = Photostability evaluation (irradiation in MeOH, TLC analysis); type: physicochemical; conditions: saturated solution in 200 mL MeOH, 2 hours of irradiation, isolated by column chromatography
# Method: All the irradiations preformed in the photostability studies were carried out in an ACE 7840 photoreactor using a 450W power ACE 7825 lamp.
# The solvent used in the photostability test was methanol [MeOH] (ppa) (250 mL), using a concentration of […] of p-nitrolophine. The solution was irradiated for 2 hours, samples being taken at 10 minutes, 20 minutes, 1 hour and 2 hours, and being dried in a rotating evaporator. Each sample was analyzed by thin layer chromatography (TLC in Silica gel) using petroleum ether:ethyl acetate (4:1) as eluent. The chromatography plates were viewed under a 254 nm lamp and a 366 nm lamp, as well as by means of simultaneous viewing under both lamps (254 and 366 nm).
# Specifically, three photoproducts (three blots) could be determined, which were isolated by preparative TLC.
# A saturated solution of m-nitrolophine in MeOH was prepared to perform the study since the solubility in this solvent is low (approximately 0.2 mg/mL). Briefly, an amount of m-nitrolophine sufficient to ensure the saturation in 200 mL of MeOH throughout the night was left stirring. The solution was filtered and irradiated for 2 hours, samples of 10 mL being taken at 10 minutes, 20 minutes, 1 hour and 2 hours, and being dried in rotating evaporator. […]
# [5] = test system: Erythema induced by UVB radiation in mouse; test: Photoprotection: erythema induced by UVB radiation in mouse skin; type: in vivo; conditions: intensity of erythema in application area versus surrounding non treated area (subjective criterion); 0.5% gel topical; listed as m-nitrotophine
# [6] = test system: Erythema induced by UVB radiation in mouse; test: as above; type: in vivo; parameters: key to Erythema induced by UVB radiation in mouse: presence (+); absence (-); conditions: 0.5% gel topical, about 2.5 kJ/m^2 UVB, 24 hours after exposure; for % Protection: percentage of protected animals
# From the text: The effect of p-nitrolophine and m-nitrolophine on erythema due to exposing the mouse skin to an irradiation source at maximum in the UVB region has been studied in these assays. The results obtained have been compared with the effect of 4-methylbenzylidene camphor (P5000) a substance considered as a UVB solar filter and with the effect of butyl methoxydibenzoylmethane (P1789) an UVA type filter, both products being commonly used in antisolar cosmetics.
# 35 male mice weighing more than 20 grams have been used. After receiving them, the animals were acclimated for 7 days at the place where the assays were preformed, they were being placed in a cage with controlled temperature (22°C), with relative humidity between 50% and 75%, replacing fresh filtered air approximately 10 times per hour and with 12 h light/dark cycles (7.00 - 19.00 light and from 19.00 to 7.00 dark). For this period and during the experimental period, the animals were fed ad libitum with standard diet for rodents and running water as drink.
# The animals were randomly distributed into 4 experimental groups according to Table 7. The products to be tested were directly used, applying them in the form of a gel on an area of the skin such that each animal form its own control.
# The test was performed following the method described by Winder et al. ["A study of Pharmacological influences on ultraviolet erythema in guinea pigs". Arch. Int Pharmacodyn, 116:261-292; 1958] and by other authors [Wendy et al. "The local antinociceptive and topical antiinflamatory effects of propyl gallate in rodents". Br. J. Pharmacol, 58:573 -581; 1976; Katiyar et al. "Protective Effects of Silymarin Against Photocarcinogenesis in a Mouse Skin Model". J Natl Cancer Inst 89:556-65; 1997] with slight modifications. The day […] the assay, as much hair as possible were removed from the animals by applying a layer of commercial hair-removing cream to remove all the trace of hair and to leave the skin of the back completely bare. The rest of the hair-removing cream were removed by means of washing and rinsing with running water and the animals were the returned to their corresponding cages where they remained until the following day.
# On the day of the assay, the substances to be assayed were blindly applied on the back of the previously labelled animals following a random pattern (randomized). After applying the corresponding treatments, the animals were placed and pinned to the presentation platform of the equipment. The animals were then placed 8 cm from an ultraviolet light source of 4*40w with 313 nm of fundamental emission and a range comprised approximately between 290 and 350 nm and with an anti-UVC filter. The emission spectrum of said light source is depicted in Figure 1.
# The exposure was maintained until all the animals have received an approximate total dose of 2.5 kJ/m^2. The dose of irradiation applied was determined by means of a ultraviolet light detector, the response curve of which is shown in Figure 2.
# Twenty four hours after ending the exposure, the back of the animals was photographed and they were returned to their cages. The evaluation of erythema was performed by means of a positive/negative criterion, the percentage of protected animals being obtained. The statistic significance of the difference was evaluated by means of the non-parametric Fisher Test.
# [7] = Absorption spectrum in methanol (195 - 400 nm); type: physicochemical; conditions: peak wavelength, 10 mg/ml
# Method: In order to determine the absorption spectrum, a solution of 10 mg/ml of methanol was prepared from each of the substances. The methanol in turn was used to adjust the zero absorbance in each of the wavelengths in the range of 195 - 400 nm.
smiles,measurement,setting,value
"O=[N+]([O-])c1cccc(-c2nc(-c3ccccc3)c(-c3ccccc3)[nH]2)c1 [m-nitrolophine, 2-(3-nitrophenyl)-4,5-diphenyl-1H-imidazole]",solubility,[1],~200 µg/mL
same,UV spectrum A (a.u),[2]; absorbance at the maximum of the same line,1.194 a.u
same,UV spectrum λ (nm),[2]; wavelengths of the maximum absorption,309.0 nm
same,estrogenicity,"[3]; E-Screen, conclusion in words",not an estrogenic compound for the receptor alpha
same,Proliferative effect (PE) Mean,[3]; 3x10^-1 mg/ml,1.45
same,Proliferative effect (PE) Mean,[3]; 3x10^-2 mg/ml,1.30
same,Proliferative effect (PE) Mean,[3]; 3x10^-3 mg/ml,1.19
same,Proliferative effect (PE) Mean,[3]; 3x10^-4 mg/ml,1.10
same,Proliferative effect (PE) Mean,[3]; 3x10^-5 mg/ml,1.08
same,Proliferative effect (PE) Mean,[3]; 3x10^-6 mg/ml,1.06
same,proliferative effect,[3]; all the tested concentrations range (300-0.003 µg/ml),lower than 1.5
same,photodecomposition product,[4],5.7 mg
same,% Suppression,[5],60 - 80%*
same,Erythema induced by UVB radiation in mouse,[6]; individual animals No. 1-10,-
same,% Protection,[6],100%
same,% Protection,[6]; listed as m-nitrotophine,100%*
same,maximum absorption,[7],309 nm
